The target of experiment [1] is T1, Integrin alpha-V/beta-3 (Homo sapiens, UniProt P05106+P06756). The experiment can be described thus: Binding affinity towards alpha V/beta3 receptor by solid-phase receptor binding assays (SPRA). The class given is protein-complex assay.
The target of experiment [2] is Integrin alpha-V/beta-1 (Homo sapiens, UniProt P05556+P06756). The experiment can be described thus: Binding affinity towards alpha V-beta1 receptor expressed in HEK293 cells. The class given is cell-based.
Experiment [3] concerns the target T1, Integrin alpha-V/beta-3. As to the kind of experiment: Binding affinity towards alpha V-beta3 receptor expressed in HEK293 cells. It counts as cell-based.
For experiment [4], the target named is Integrin alpha-V/beta-5 (Homo sapiens, UniProt P06756+P18084). As to the kind of experiment: Binding affinity towards alpha V-beta5 receptor expressed in HEK293 cells. The class given is cell-based.
Experiment [5] has as its target Integrin alpha-IIb/beta-3 (Homo sapiens, UniProt P05106+P08514). As to the kind of experiment: Binding affinity towards alpha IIb/beta3 integrin by solid-phase receptor binding assay (SPRA). The class given is protein-complex assay.

These results are taken from ChEMBL document CHEMBL1147627, “Synthesis of cinnamic acids and related isosteres as potent and selective alpha v beta 3 receptor antagonists” (Bioorg Med Chem Lett, 2004).

In general, IC50 refers to the concentration needed to halve the response being measured.

Sequence of Integrin alpha-V/beta-1 (P05556 21-798 limits assumed): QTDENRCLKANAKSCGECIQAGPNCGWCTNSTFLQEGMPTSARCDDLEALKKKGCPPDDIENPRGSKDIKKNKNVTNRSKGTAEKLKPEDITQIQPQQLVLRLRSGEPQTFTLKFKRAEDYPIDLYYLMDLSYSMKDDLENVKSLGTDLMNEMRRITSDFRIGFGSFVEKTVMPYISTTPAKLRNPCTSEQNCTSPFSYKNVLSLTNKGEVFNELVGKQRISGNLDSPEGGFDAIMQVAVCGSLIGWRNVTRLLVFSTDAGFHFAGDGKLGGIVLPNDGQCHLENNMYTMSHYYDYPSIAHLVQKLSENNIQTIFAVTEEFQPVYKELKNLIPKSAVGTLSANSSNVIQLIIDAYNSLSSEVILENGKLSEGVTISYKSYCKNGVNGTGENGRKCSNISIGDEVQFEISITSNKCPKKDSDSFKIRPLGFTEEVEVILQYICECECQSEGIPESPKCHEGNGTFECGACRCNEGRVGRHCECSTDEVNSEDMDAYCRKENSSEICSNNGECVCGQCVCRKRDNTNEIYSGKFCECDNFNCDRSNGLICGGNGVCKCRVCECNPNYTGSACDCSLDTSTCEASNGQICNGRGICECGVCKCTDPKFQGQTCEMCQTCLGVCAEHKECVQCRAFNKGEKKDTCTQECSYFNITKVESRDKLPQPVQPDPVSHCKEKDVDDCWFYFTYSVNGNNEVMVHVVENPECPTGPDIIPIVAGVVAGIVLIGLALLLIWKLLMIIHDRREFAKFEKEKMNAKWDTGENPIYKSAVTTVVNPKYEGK
Sequence of Integrin alpha-V/beta-1 (P06756 31-889 limits assumed): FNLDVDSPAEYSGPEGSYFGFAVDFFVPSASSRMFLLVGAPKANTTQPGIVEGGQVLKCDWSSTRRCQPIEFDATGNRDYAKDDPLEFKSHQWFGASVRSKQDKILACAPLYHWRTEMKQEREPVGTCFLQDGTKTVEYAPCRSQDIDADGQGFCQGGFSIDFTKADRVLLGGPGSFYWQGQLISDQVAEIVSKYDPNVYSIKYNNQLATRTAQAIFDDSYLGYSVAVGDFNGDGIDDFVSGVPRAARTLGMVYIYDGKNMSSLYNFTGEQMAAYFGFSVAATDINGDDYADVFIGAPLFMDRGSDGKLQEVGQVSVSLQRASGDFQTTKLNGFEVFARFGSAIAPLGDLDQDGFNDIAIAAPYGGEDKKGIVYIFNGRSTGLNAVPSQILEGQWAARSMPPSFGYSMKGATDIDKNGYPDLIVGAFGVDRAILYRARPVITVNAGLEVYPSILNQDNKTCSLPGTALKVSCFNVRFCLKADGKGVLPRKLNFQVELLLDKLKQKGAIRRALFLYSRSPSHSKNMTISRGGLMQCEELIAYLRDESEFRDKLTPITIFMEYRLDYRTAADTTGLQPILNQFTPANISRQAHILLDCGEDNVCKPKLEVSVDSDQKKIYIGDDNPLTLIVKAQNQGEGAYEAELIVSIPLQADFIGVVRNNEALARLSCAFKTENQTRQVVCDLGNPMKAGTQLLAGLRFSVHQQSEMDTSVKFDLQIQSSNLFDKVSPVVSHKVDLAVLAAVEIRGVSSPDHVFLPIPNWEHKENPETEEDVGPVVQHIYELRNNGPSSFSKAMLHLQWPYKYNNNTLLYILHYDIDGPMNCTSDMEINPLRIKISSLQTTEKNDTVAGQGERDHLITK
Sequence of Integrin alpha-V/beta-1 (P06756 891-1048 limits assumed): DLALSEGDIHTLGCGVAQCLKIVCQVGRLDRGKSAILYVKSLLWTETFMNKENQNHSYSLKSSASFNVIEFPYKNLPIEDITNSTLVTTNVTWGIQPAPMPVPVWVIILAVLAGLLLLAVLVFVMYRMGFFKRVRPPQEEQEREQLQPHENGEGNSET
Sequence of Integrin alpha-V/beta-5 (P06756 31-889 limits assumed): as the sequence (P06756 31-889 limits assumed) above
Sequence of Integrin alpha-V/beta-5 (P06756 891-1048 limits assumed): as the sequence (P06756 891-1048 limits assumed) above
Sequence of Integrin alpha-V/beta-5 (P18084 24-799 limits assumed): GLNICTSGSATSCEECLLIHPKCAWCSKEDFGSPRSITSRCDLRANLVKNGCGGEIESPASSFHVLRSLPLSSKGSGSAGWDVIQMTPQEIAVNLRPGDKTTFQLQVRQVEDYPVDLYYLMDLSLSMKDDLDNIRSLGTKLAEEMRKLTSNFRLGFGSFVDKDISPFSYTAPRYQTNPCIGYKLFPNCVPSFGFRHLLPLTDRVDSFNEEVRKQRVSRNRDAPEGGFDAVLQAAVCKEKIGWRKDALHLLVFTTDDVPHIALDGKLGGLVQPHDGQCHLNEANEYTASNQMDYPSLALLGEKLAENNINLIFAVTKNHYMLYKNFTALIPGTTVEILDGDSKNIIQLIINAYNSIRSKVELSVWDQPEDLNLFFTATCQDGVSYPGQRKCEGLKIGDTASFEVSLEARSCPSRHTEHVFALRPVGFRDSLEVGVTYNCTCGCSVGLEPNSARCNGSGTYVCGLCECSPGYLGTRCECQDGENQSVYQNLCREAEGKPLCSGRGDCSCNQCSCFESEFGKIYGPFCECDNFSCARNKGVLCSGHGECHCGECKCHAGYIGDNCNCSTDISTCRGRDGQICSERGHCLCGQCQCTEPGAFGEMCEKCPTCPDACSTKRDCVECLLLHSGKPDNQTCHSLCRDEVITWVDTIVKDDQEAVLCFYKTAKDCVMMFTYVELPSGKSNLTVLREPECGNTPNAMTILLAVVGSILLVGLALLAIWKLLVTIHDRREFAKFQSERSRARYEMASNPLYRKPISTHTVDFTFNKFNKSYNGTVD
Sequence of Integrin alpha-IIb/beta-3 (P05106 27-788 limits assumed): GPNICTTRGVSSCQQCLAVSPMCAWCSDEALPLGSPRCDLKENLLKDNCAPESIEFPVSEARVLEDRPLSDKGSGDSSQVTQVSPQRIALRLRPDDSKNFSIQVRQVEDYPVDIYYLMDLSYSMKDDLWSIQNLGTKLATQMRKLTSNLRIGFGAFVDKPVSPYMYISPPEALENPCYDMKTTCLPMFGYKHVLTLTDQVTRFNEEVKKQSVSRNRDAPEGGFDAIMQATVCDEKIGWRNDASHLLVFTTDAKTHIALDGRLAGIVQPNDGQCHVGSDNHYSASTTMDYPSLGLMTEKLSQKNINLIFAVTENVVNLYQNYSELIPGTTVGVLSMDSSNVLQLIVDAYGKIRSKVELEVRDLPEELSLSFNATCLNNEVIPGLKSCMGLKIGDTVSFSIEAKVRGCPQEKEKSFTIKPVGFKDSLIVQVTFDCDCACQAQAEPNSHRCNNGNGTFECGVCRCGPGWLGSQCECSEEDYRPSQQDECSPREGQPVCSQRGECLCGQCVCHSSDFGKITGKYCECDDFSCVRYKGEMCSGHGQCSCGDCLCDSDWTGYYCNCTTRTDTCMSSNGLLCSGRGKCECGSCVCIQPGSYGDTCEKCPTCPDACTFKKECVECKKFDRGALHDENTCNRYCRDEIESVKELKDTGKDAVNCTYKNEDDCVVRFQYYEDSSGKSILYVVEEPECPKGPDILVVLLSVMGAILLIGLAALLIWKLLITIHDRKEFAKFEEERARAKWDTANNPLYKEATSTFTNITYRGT
Sequence of Integrin alpha-IIb/beta-3 (P08514 32-887 limits assumed): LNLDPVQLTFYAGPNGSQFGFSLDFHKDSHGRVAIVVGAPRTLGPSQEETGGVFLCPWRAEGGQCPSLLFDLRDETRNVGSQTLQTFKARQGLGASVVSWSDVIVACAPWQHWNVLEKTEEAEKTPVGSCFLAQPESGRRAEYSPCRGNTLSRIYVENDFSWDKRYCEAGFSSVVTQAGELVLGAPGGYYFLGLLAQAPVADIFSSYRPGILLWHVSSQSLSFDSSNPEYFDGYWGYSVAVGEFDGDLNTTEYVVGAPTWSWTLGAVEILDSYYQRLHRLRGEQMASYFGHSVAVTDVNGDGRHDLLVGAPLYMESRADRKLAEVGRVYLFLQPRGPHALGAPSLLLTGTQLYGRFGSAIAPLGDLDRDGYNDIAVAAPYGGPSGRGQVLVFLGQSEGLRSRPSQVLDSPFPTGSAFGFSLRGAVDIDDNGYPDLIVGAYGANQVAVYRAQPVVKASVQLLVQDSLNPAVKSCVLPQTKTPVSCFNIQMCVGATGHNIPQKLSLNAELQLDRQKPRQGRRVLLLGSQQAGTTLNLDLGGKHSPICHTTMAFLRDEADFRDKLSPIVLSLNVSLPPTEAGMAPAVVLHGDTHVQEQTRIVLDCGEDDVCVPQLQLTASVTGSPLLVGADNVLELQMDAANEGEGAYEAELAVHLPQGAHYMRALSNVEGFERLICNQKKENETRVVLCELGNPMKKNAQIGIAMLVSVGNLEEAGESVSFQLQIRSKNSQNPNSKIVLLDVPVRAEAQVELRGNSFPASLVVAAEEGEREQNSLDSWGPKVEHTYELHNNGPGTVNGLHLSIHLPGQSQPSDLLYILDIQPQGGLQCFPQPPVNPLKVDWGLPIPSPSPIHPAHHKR
Sequence of Integrin alpha-IIb/beta-3 (P08514 891-1039 limits assumed): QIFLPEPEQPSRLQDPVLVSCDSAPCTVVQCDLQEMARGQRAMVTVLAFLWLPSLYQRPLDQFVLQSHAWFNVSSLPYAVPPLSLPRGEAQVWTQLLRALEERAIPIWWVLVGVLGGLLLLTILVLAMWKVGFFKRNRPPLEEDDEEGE
T1 sequence (P05106 27-788 limits assumed): as the sequence (P05106 27-788 limits assumed) above
T1 sequence (P06756 31-889 limits assumed): as the sequence (P06756 31-889 limits assumed) above
T1 sequence (P06756 891-1048 limits assumed): as the sequence (P06756 891-1048 limits assumed) above

Take `N=C(N)Nc1cccc(C(=O)Nc2ccc(/C=C/C(=O)O)c(C(=O)O)c2)c1`: in experiment [1], the IC50 amounted to 1.2 nM.

Turning to `CC(C)(C)OC(=O)NC(Cc1ccc(NC(=O)c2cccc(N=C(N)N)c2)cc1)C(=O)O` (stereo not drawn), the IC50 in experiment [2] amounted to 6.7 nM; in experiment [3] it was 2.5 nM; in experiment [4], 1 nM.

`COc1cc(NC(=O)c2cccc(NC3=NCCCN3)c2)ccc1OCC(=O)O`: the IC50 in experiment [2] worked out at 82 nM; in experiment [3], 1.7 nM; in experiment [4], 29 nM; in experiment [1] it was 0.43 nM.

Molecule `N=C(N)Nc1cccc(C(=O)Nc2cc(Cl)c(/C=C/C(=O)O)c(Cl)c2)c1` gave an IC50 in experiment [5] of 25000 nM.

As to `N=C(N)Nc1cccc(C(=O)Nc2ccc(/C=C/C(=O)O)cc2F)c1`, the IC50 is 426 nM in experiment [2], 9.6 nM in experiment [3] and 45 nM in experiment [4].

For the molecule `COc1cc(NC(=O)c2cccc(NC(=N)N)c2)ccc1CC(NC(=O)OC(C)C)C(=O)O` (stereo not drawn), the IC50 in experiment [2] worked out at 1.1 nM; in experiment [3], 0.32 nM; in experiment [4], 0.38 nM; in experiment [1] it was 1.1 nM.

Regarding `COc1cc(NC(=O)c2cccc(N=C(N)N)c2)ccc1OCC(=O)O`, the IC50 in experiment [2] was 222 nM; in experiment [3], 4.3 nM; in experiment [4] it was 102 nM; in experiment [1], 3.2 nM.

Take `O=C(O)CCc1ccc(NC(=O)c2cccc(NC3=NCCCN3)c2)cc1C(=O)O`: the IC50 in experiment [1] came to 6.1 nM.

For `N=C(N)Nc1cccc(C(=O)Nc2ccc(OCC(=O)O)cc2)c1`, the IC50 in experiment [2] was 351 nM; in experiment [3], 11.9 nM; in experiment [4] it was 144 nM.

On to `COc1cc(/C=C/C(=O)O)ccc1NC(=O)c1cccc(NC(=N)N)c1`, for which the IC50 in experiment [5] was 38 nM; in experiment [1], 10.3 nM.

For the molecule `O=C(O)/C=C/c1ccc(NC(=O)c2cccc(NC3=NCCCN3)c2)cc1Cl`, the IC50 in experiment [2] was found to be 507 nM; in experiment [3], 3.8 nM; in experiment [4], 26 nM; in experiment [5], 641 nM; in experiment [1], 3.9 nM.

In the case of `N=C(N)Nc1cccc(C(=O)Nc2ccc(CC(NS(=O)(=O)c3ccccc3)C(=O)O)cc2)c1` (stereo not drawn), the IC50 in experiment [2] is 18.3 nM; in experiment [3] it was 0.2 nM; in experiment [4], 8.1 nM.

Turning to `CCc1cc(/C=C/C(=O)O)ccc1NC(=O)c1cccc(NC(=N)N)c1`, the IC50 in experiment [1] worked out at 3 nM.

In the case of `NC(N)=Nc1cccc(C(=O)Nc2ccc(CCC(=O)O)cc2)c1`, the IC50 in experiment [2] amounted to 758 nM; in experiment [3], 10.9 nM; in experiment [4], 135 nM.

For the molecule `CS(=O)(=O)NC(Cc1ccc(NC(=O)c2cccc(N=C(N)N)c2)cc1)C(=O)O` (stereo not drawn), the IC50 in experiment [2] came out at 29 nM; in experiment [3], 0.98 nM; in experiment [4], 3.1 nM.

As to `N=C(N)Nc1cccc(C(=O)Nc2ccc(/C=C/C(=O)O)cc2)c1`, the IC50 in experiment [2] was determined as 109 nM; in experiment [3] it was 13.1 nM; in experiment [4] it was 39 nM.

Turning to `N=C(N)Nc1cccc(C(=O)Nc2ccc(/C=C/C(=O)O)c(Cl)c2)c1`, the results for the IC50 in experiment [5] and in experiment [1] were 45 nM and 23 nM, respectively.

Take `COc1cc(NC(=O)c2cccc(NC3=NCCCN3)c2)ccc1CC(NC(=O)OC(C)C)C(=O)O` (stereo not drawn): the IC50 in experiment [2] came to 0.68 nM; in experiment [3], 0.35 nM; in experiment [4] it was 0.41 nM; in experiment [5], 1000 nM; in experiment [1], 0.16 nM.

As for `O=C(O)/C=C/c1ccc(NC(=O)c2cccc(NC3=NCCCN3)c2)c(Cl)c1`, the IC50 was 85 nM in experiment [2], 1.7 nM in experiment [3] and 13 nM in experiment [4].

For the molecule `CC(=O)NC(Cc1ccc(NC(=O)c2cccc(N=C(N)N)c2)cc1)C(=O)O` (stereo not drawn), the figures for the IC50 in experiment [2], in experiment [3] and in experiment [4] were 16 nM, 2.6 nM and 40 nM, respectively.

Turning to `COc1cc(NC(=O)c2cccc(NC3=NCCCN3)c2)ccc1CCC(=O)O`, the IC50 in experiment [2] came out at 162 nM; in experiment [3], 5.6 nM; in experiment [4], 16.6 nM; in experiment [1], 5.8 nM.

On to `N=C(N)Nc1cccc(C(=O)Nc2ccc(C3CC3C(=O)O)cc2)c1` (stereo not drawn), for which the half-maximal inhibitory concentration (IC50) is 339 nM in experiment [2], 65 nM in experiment [3], 149 nM in experiment [4] and 31 nM in experiment [1].

Turning to `Cc1cc(/C=C/C(=O)O)cc(C)c1NC(=O)c1cccc(NC2=NCCN2)c1`, the IC50 stood at 264 nM in experiment [2], 3 nM in experiment [3] and 29 nM in experiment [4].

Consider `CC(C)OC(=O)NC(Cc1ccc(NC(=O)c2cccc(NC3=NC(=O)CN3)c2)cc1)C(=O)O` (stereo not drawn), for which the IC50 in experiment [2] worked out at 17.7 nM; in experiment [3], 0.94 nM; in experiment [4], 0.89 nM.

`O=C(Nc1ccc(CC(NS(=O)(=O)c2ccccc2)C(=O)O)cc1)c1cccc(NC2=NCCCN2)c1` (stereo not drawn): the IC50 in experiment [2] was determined as 10.4 nM; in experiment [3], 0.12 nM; in experiment [4], 0.96 nM; in experiment [5], 6 nM; in experiment [1], 0.11 nM.

As for `O=C(Nc1ccc(CC(NS(=O)(=O)c2ccccc2)C(=O)O)cc1)c1cccc(NC2=NCCN2)c1` (stereo not drawn), the IC50 in experiment [5] came to 12.5 nM; in experiment [1] it was 0.27 nM.

`O=C(Nc1ccc(C2CC2C(=O)O)cc1)c1cccc(NC2=NCCCN2)c1` (stereo not drawn): the IC50 in experiment [2] is 320 nM; in experiment [3], 40 nM; in experiment [4], 69 nM.

Regarding `COc1cc(NC(=O)c2cccc(NC3=NCCCN3)c2)ccc1/C=C/C(=O)O`, the IC50 was 661 nM in experiment [5] and 2.2 nM in experiment [1].

`CC(C)(C)NC(=O)NC(Cc1ccc(NC(=O)c2cccc(N=C(N)N)c2)cc1)C(=O)O` (stereo not drawn): the IC50 is 4.8 nM in experiment [2], 2.9 nM in experiment [3], 3 nM in experiment [4] and 3.2 nM in experiment [1].

On to `O=C(O)/C=C/c1ccc(NC(=O)c2cccc(NC3=NCCCN3)c2)cc1`, for which the IC50 was 219 nM in experiment [2]; 1.8 nM in experiment [3]; 7.6 nM in experiment [4]; 528 nM in experiment [5]; 2 nM in experiment [1].

As to `Cc1cc(/C=C/C(=O)O)ccc1NC(=O)c1cccc(NC2=NCCCN2)c1`, the values for the IC50 in experiment [2], in experiment [3] and in experiment [4] were 60 nM, 1.7 nM and 9.6 nM, respectively.

For the molecule `Cc1cc(NC(=O)c2cccc(NC(=N)N)c2)ccc1/C=C/C(=O)O`, the IC50 in experiment [2] was determined as 505 nM; in experiment [3] it was 19.4 nM; in experiment [4], 49 nM.

For `CC(C)OC(=O)NC(Cc1ccc(NC(=O)c2cccc(N=C(N)N)c2)cc1)C(=O)O` (stereo not drawn), the IC50 was determined as 0.47 nM in experiment [2], 2.6 nM in experiment [3], 0.76 nM in experiment [4] and 22 nM in experiment [5].

`N=C(N)Nc1cccc(C(=O)Nc2ccc(/C=C/C(=O)O)cc2Cl)c1`: the figures for the IC50 in experiment [2], in experiment [3] and in experiment [4] were 426 nM, 5.9 nM and 60 nM, respectively.

In the case of `Cc1cc(/C=C/C(=O)O)cc(C)c1NC(=O)c1cccc(NC(=N)N)c1`, the IC50 in experiment [2] came to 2070 nM; in experiment [3], 21 nM; in experiment [4] it was 116 nM.
